Assay results taken from patent US20130315825A1, “TRICYCLIC HETEROAROMATIC COMPOUNDS AS ALPHA-SYNUCLEIN LIGANDS” (Washington University, priority 2012, published 2013).
Where two headings read alike, the source gives them in different places. Each block holds one compound with its values, some of them ahead of it.

Columns and labels:
[1] = target: T1, Aβ1-42 fibrils (Homo sapiens, UniProt P05067); test: [125I]SIL23 competitive binding assay, Aβ1-42 fibrils; settings: [125I]SIL23 competition, 95% confidence intervals in parentheses
T1 construct: Synthetic Aβ1-42 peptide (1 mg) (Bachem, Torrance, Calif.); purchased Bachem, Torrance, Calif; host or cells: synthetic peptide

[2] = target: T2, α-synuclein fibrils (Homo sapiens, UniProt P37840); test: ThT competitive binding assay with α-synuclein fibrils
[3] = target: Human PD brain homogenate (Homo sapiens, UniProt P37840); settings: [125I]SIL23 competition, human PD brain homogenate (insoluble fraction); 95% confidence intervals in parentheses
[4] = target: T2, α-synuclein fibrils; settings: [125I]SIL23 competition, 95% confidence intervals in parentheses
[5] = tested on: Aβ plaques in AD brain; settings: cited from earlier work; for Kd: binding to Aβ plaques
[6] = Ex vivo biodistribution in Sprague-Dawley rats; settings: for brain uptake: male SD rats (n=4);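 as to all read-outs here: four rats in each time-point group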
[7] = target: T1, Aβ1-42 fibrils; test: [125I]SIL23 saturation binding, synthetic Aβ1-42 fibrils
[8] = target: T3, tau fibrils (Homo sapiens, UniProt P10636); test: [125I]SIL23 saturation binding, recombinant tau fibrils
T3 construct: made in house; host or cells: BL21(DE3)RIL E. coli
Experimental: Recombinant tau protein was produced in E. Coli.
Filters containing the bound ligand were mixed with 150 μl of Optiphase Supermix scintillation cocktail (PerkinElmer) and counted immediately. All data points were performed in triplicate.

T3 sequence (P10636 560-692): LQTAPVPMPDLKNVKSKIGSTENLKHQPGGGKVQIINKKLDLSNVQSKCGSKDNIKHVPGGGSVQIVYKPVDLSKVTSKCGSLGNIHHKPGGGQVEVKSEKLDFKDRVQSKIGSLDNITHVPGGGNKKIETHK
T1 sequence (P05067 672-713 limits assumed): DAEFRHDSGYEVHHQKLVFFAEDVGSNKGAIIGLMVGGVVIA

Ki [1]: 110 nM
SMILES: COc1ccc2c(c1)Sc1cc([N+](=O)[O-])ccc1N2 [SIL5, 3-methoxy-7-nitro-10H-phenothiazine]

IC50 [2]: 39.6 ± 1.2 nM
Ki [2]: 9.5 nM
SMILES: COc1ccc2c(c1)Nc1ccc([N+](=O)[O-])cc1O2 [TZ-2-39, 2-methoxy-7-nitro-10H-phenoxazine]

IC50 [2]: 111.8 ± 1.1 nM
Ki [2]: 26.8 nM
SMILES: COc1ccc2c(c1)Oc1cc([N+](=O)[O-])cnc1N2 [TZ-2-48, 7-methoxy-3-nitro-10H-benzo[b]pyrido[2,3-e][1,4]-oxazine]

IC50 [2]: 2231 ± 1.2 nM
Ki [2]: 536 nM
SMILES: COc1ccc2c(c1)Sc1cnccc1N2 [TZ5B-79-1-1, 8-methoxy-5H-benzo[b]pyrido[4,3-e][1,4]thiazine]

IC50 [2]: 1082 ± 2.4 nM
Ki [2]: 260 nM
SMILES: COc1ccc2c(c1)Nc1ccc(C(F)(F)F)cc1S2 [TZ5B-159-1, 2-methoxy-7-(trifluoromethyl)-10H-phenothiazine]

IC50 [2]: 106.9 ± 1 nM
Ki [2]: 25.7 nM
SMILES: COc1ccc2c(c1)Oc1cc([N+](=O)[O-])ccc1N2 [TZ-2-33, 3-methoxy-7-nitro-10H-phenoxazine]

SMILES: O=C(O)c1cc(/N=N/c2ccc(-c3ccc(/N=N/c4ccc(O)c(C(=O)O)c4)cc3)cc2)ccc1O [Chrysamine G]
Ki [3]: 367 nM
Ki [4]: 432 nM

IC50 [2]: 686.9 ± 1.2 nM
Ki [2]: 165 nM
SMILES: COc1ccc2c(c1)Oc1cccc([N+](=O)[O-])c1N2 [TZ-2-54, 7-methoxy-1-nitro-10H-phenoxazine]

SMILES: CNc1ccc(/C=C/c2ccc(OCCOCCOCCF)nc2)cc1 [AV-45]
average Bmax / binding site density ([5]; AV-45 binding in AD brain): 8.8 pmol/mg protein
Kd [5]: 3.7 nM

Ki [2]: > 1000 nM
SMILES: CC(=O)N1c2ccccc2N(C(C)=O)c2ccccc21 [TZ16-147-3, 1,1′-(phenazine-5,10-diyl)diethanone]

IC50 [2]: 500.9 ± 1.1 nM
Ki [2]: 120 nM
SMILES: COc1ccc2c(c1)Nc1c(cccc1[N+](=O)[O-])O2 [TZ-2-52, 8-methoxy-1-nitro-10H-phenoxazine]

IC50 [2]: 1426 ± 1.2 nM
Ki [2]: 342 nM
SMILES: COc1cccc2c1Nc1ccc([N+](=O)[O-])cc1S2 [TZ10-27-1, 1-methoxy-7-nitro-10H-phenothiazine]

IC50 [2]: 152 ± 1.1 nM
Ki [2]: 36.5 nM
SMILES: COc1ccc2c(c1)Nc1ccc([N+](=O)[O-])cc1S2 [TZ10-1-2-1, 2-methoxy-7-nitro-10H-phenothiazine]

IC50 [2]: 742.7 ± 1.1 nM
Ki [2]: 178 nM
SMILES: COc1ccc2c(c1)Sc1cc(C(F)(F)F)ccc1N2 [TZ5B-71, 3-methoxy-7-(trifluoromethyl)-10H-phenothiazine]

Ki [2]: > 1000 nM
SMILES: COc1ccc2c(c1)Nc1cc([N+](=O)[O-])ccc1N2 [TZ16-133-2, 2-methoxy-8-nitro-5,10-dihydrophenazine]

IC50 [2]: 1048 ± 1.9 nM
Ki [2]: 252 nM
SMILES: COc1cccc2c1N(C(C)=O)c1ccc(C(F)(F)F)cc1S2 [TZ5B-145-2, 1-(1-methoxy-7-(trifluoromethyl)-10H-phenothiazin-10-yl)ethanone]

Ki [3]: 99.2 nM
Ki [4]: 116 nM
SMILES: CNc1ccc(-c2nc3ccc(O)cc3s2)cc1 [PIB]
average Bmax / binding site density ([5]; PiB binding in AD brain): 1407 pmol/g wet weight
Kd [5]: 2.5 nM

IC50 [2]: 6624 ± 1.4 nM
Ki [2]: 1590 nM
SMILES: COc1ccc2c(c1)Sc1cccnc1N2 [TZ5B-95-1, 7-methoxy-10H-benzo[b]pyrido[2,3-e][1,4]thiazine]

Biodistribution ([6]; blood, 5 min, male Sprague-Dawley rats): 0.553 ± 0.047 I.D. %/gram
Biodistribution ([6]; blood, 30 min, male Sprague-Dawley rats): 0.589 ± 0.016 I.D. %/gram
Biodistribution ([6]; blood, 60 min, male Sprague-Dawley rats): 0.606 ± 0.035 I.D. %/gram
Biodistribution ([6]; blood, 120 min, male Sprague-Dawley rats): 0.585 ± 0.046 I.D. %/gram
defluorination ([6]; bone uptake from 5 to 60 min): no defluorination was observed
Biodistribution ([6]; bone, 5 min, male Sprague-Dawley rats): 0.340 ± 0.027 I.D. %/gram
Biodistribution ([6]; bone, 30 min, male Sprague-Dawley rats): 0.309 ± 0.020 I.D. %/gram
Biodistribution ([6]; bone, 60 min, male Sprague-Dawley rats): 0.407 ± 0.043 I.D. %/gram
Biodistribution ([6]; bone, 120 min, male Sprague-Dawley rats): 0.644±0.071 I.D. %/gram
brain uptake ([6]; 5 min post i.v. injection): 0.758±0.013 % I.D./g
brain uptake ([6]; 30 min post i.v. injection): 0.465±0.018 % I.D./g
brain uptake ([6]; 60 min post i.v. injection): 0.410±0.030 % I.D./g
brain uptake ([6]; 120 min post i.v. injection): 0.359±0.016 % I.D./g
Biodistribution ([6]; fat, 5 min, male Sprague-Dawley rats): 0.255 ± 0.037 I.D. %/gram
Biodistribution ([6]; fat, 30 min, male Sprague-Dawley rats): 0.425 ± 0.023 I.D. %/gram
Biodistribution ([6]; fat, 60 min, male Sprague-Dawley rats): 0.371 ± 0.067 I.D. %/gram
Biodistribution ([6]; fat, 120 min, male Sprague-Dawley rats): 0.293 ± 0.048 I.D. %/gram
Biodistribution ([6]; heart, 5 min, male Sprague-Dawley rats): 0.757 ± 0.033 I.D. %/gram
Biodistribution ([6]; heart, 30 min, male Sprague-Dawley rats): 0.505 ± 0.015 I.D. %/gram
Biodistribution ([6]; heart, 60 min, male Sprague-Dawley rats): 0.466 ± 0.040 I.D. %/gram
Biodistribution ([6]; heart, 120 min, male Sprague-Dawley rats): 0.410 ± 0.030 I.D. %/gram
Biodistribution ([6]; kidney, 5 min, male Sprague-Dawley rats): 1.070 ± 0.058 I.D. %/gram
Biodistribution ([6]; kidney, 30 min, male Sprague-Dawley rats): 0.988 ± 0.090 I.D. %/gram
Biodistribution ([6]; kidney, 60 min, male Sprague-Dawley rats): 0.678 ± 0.032 I.D. %/gram
Biodistribution ([6]; kidney, 120 min, male Sprague-Dawley rats): 0.659 ± 0.027 I.D. %/gram
Biodistribution ([6]; liver, 5 min, male Sprague-Dawley rats): 1.626±0.221 I.D. %/gram
Biodistribution ([6]; liver, 30 min, male Sprague-Dawley rats): 0.847 ± 0.027 I.D. %/gram
Biodistribution ([6]; liver, 60 min, male Sprague-Dawley rats): 0.561 ± 0.028 I.D. %/gram
Biodistribution ([6]; liver, 120 min, male Sprague-Dawley rats): 0.467 ± 0.023 I.D. %/gram
Biodistribution ([6]; lung, 5 min, male Sprague-Dawley rats): 0.833 ± 0.053 I.D. %/gram
Biodistribution ([6]; lung, 30 min, male Sprague-Dawley rats): 0.561 ± 0.021 I.D. %/gram
Biodistribution ([6]; lung, 60 min, male Sprague-Dawley rats): 0.491 ± 0.030 I.D. %/gram
Biodistribution ([6]; lung, 120 min, male Sprague-Dawley rats): 0.436 ± 0.018 I.D. %/gram
ability to cross the blood-brain-barrier (BBB) ([6]; male Sprague-Dawley rats, i.v.): able to cross BBB
Biodistribution ([6]; muscle, 5 min, male Sprague-Dawley rats): 0.430 ± 0.031 I.D. %/gram
Biodistribution ([6]; muscle, 30 min, male Sprague-Dawley rats): 0.451 ± 0.018 I.D. %/gram
Biodistribution ([6]; muscle, 60 min, male Sprague-Dawley rats): 0.376 ± 0.019 I.D. %/gram
Biodistribution ([6]; muscle, 120 min, male Sprague-Dawley rats): 0.315 ± 0.015 I.D. %/gram
Biodistribution ([6]; pancreas, 5 min, male Sprague-Dawley rats): 1.004 ± 0.147 I.D. %/gram
Biodistribution ([6]; pancreas, 30 min, male Sprague-Dawley rats): 0.546 ± 0.068 I.D. %/gram
Biodistribution ([6]; pancreas, 60 min, male Sprague-Dawley rats): 0.409 ± 0.029 I.D. %/gram
Biodistribution ([6]; pancreas, 120 min, male Sprague-Dawley rats): 0.330 ± 0.021 I.D. %/gram
Biodistribution ([6]; spleen, 5 min, male Sprague-Dawley rats): 0.672 ± 0.064 I.D. %/gram
Biodistribution ([6]; spleen, 30 min, male Sprague-Dawley rats): 0.509 ± 0.022 I.D. %/gram
Biodistribution ([6]; spleen, 60 min, male Sprague-Dawley rats): 0.446 ± 0.038 I.D. %/gram
Biodistribution ([6]; spleen, 120 min, male Sprague-Dawley rats): 0.398 ± 0.019 I.D. %/gram
SMILES: O=[N+]([O-])c1ccc2c(c1)Sc1cc(OCC[18F])ccc1N2 [[^18F]SIL26]

Bmax ([7]; Aβ1-42 fibrils): 23.7 pmol/nmol
Kd ([7]; Aβ1-42 fibrils): 635 nM
affinity lower than that observed for α-synuclein fibrils ([7]; Aβ1-42 fibrils versus α-synuclein fibrils): 5 fold
Bmax ([8]; tau fibrils): 4.57 pmol/nmol
Kd ([8]; tau fibrils): 230 nM
affinity lower than α-synuclein fibrils ([8]; tau fibrils versus α-synuclein fibrils): approximately 2 fold
SMILES: O=[N+]([O-])c1ccc2c(c1)Sc1cc(OC/C=C/[125I])ccc1N2 [[^125I]SIL23]

SMILES: CN(C)c1ncc(/C=C/c2nc3ccc(OCCF)cc3o2)s1 [BF227]
Ki [3]: 138 nM
Ki [4]: 39.7 nM
